Patent US5075303A, “Pyridine derivatives” (John Wyeth & Brother Limited, priority 1989, dated 1991)

Assays:
[1] = target: T1, 5-HT1A receptor (Rattus norvegicus, UniProt P19327); test: 5-HT1A receptor binding activity in rat hippocampal membrane homogenate
T1 construct: rat hippocampal membrane homogenate; from tissue; host or cells: rat hippocampus (membrane homogenate)
T1 sequence (P19327 1-422): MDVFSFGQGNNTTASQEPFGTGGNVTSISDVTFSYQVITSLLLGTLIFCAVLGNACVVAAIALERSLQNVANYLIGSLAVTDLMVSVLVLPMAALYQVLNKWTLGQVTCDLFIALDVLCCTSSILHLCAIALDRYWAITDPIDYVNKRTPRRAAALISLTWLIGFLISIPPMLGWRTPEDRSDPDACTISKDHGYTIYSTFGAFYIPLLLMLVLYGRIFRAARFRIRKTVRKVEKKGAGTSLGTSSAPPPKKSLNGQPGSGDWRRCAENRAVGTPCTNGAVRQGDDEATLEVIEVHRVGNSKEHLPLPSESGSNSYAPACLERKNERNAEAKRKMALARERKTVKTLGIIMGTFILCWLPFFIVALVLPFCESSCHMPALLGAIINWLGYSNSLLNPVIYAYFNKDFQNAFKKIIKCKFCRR
Method: The compounds of the invention were tested for 5 HT1A receptor binding activity in rat hippocampal membrane homogenate by the method of B S Alexander and M D Wood, J Pharm Pharmacol, 1988, 40, 888-891.

[2] = target: T2, 5-HT1 receptor (Rattus norvegicus, UniProt P19327); test: 5-HT1 receptor agonist activity in vivo: 5-HT related behaviour in rats following i.v. administration; conditions: iv, calculated by the method of Kimball et al
T2 construct: 5-HT related behaviour in rats following i.v. administration; from tissue; host or cells: living rat (in vivo test, endogenous receptor)
T2 sequence (P19327 1-422): T1 sequence (P19327 1-422)
Method: The compounds are evaluated for 5-HT1 receptor agonist activity in vivo by a method involving the assessment of 5-HT related behaviour in rats following i.v. administration of the test compound (M D Tricklebank et al, European Journal of Pharmacol, 1985, 106, 271-282).

[3] = target: T3, 5HT1A receptor (Cavia porcellus, UniProt A0A286Y074); test: antagonism of 8-hydroxy-2-(di-n-propylamino)tetralin in the guinea-pig ileum in vitro; format: biochemical
T3 construct: in the guinea-pig ileum in vitro; from tissue; host or cells: guinea-pig ileum
T3 sequence (A0A286Y074 1-421): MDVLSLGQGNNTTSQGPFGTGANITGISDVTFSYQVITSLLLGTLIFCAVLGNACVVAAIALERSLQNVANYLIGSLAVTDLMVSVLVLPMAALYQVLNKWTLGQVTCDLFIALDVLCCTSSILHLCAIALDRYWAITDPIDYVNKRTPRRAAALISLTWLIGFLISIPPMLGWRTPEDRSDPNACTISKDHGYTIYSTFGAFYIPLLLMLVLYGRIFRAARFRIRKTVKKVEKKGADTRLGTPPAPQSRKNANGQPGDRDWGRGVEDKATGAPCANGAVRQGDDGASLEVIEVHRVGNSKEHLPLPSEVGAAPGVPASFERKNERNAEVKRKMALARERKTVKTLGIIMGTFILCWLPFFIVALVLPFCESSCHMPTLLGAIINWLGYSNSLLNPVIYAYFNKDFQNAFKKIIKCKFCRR

Row | IC50 [1] [nM] | ED50 [2] [mg/kg] | pA2 [3] | SMILES
1 | 138 | 0.62 | – | CCCN(CCC)C1CCc2cccnc2C1 (stereo not drawn) [Example 12, 5,6,7,8-Tetrahydro-7--(1,1-dipropylamino)quinoline]
2 | 26 | 0.81 | 7.7 | CN(CCCCN1C(=O)CC2(CCCC2)CC1=O)C1CCc2cccnc2C1 (stereo not drawn) [Example 16, 8-{4-[N-(5,6,7,8-Tetrahydroquinolin-7 yl) N-methyl]aminobutyl}-8-azaspiro[4.5]decan 7,9-dione]
3 | 42 | – | – | CCCN(CC1COc2ccccc2O1)C1CCc2cccnc2C1 (stereo not drawn) [Example 15]
4 | 9 | 0.52 | – | CCCN(CCNC(=O)c1ccc(F)cc1)C1CCc2cccnc2C1 (stereo not drawn) [Example 19, 4-Fluoro-N-[2-[N --(5,6,7,8-tetrahydroquinoin-7 yl)-N'-propyl]aminoethyl}benzamide]
5 | 55 | 0.57 | – | c1cnc2c(c1)CCC(N1CCCC1)C2 (stereo not drawn) [Example 38, 5,6,7,8-Tetrahydro 7-pyrrolidinoquinoline]
6 | 131 | – | – | CN(CCNC(=O)Cc1c(F)cccc1F)C1CCc2cccnc2C1 (stereo not drawn) [Example 35, N-{2-[N'-(5,6,7,8-Tetrahydroquinolin-7 yl)-N'-methyl]aminoethyl}-2,6-difluorophenylacetamide]
7 | 68 | – | – | CN(CCC1COc2ccccc2O1)C1CCc2cccnc2C1 (stereo not drawn) [Example 20, 7-Amino-5,6,7,8-tetrahydro N-{2 [2 (2,3 dihydro-1,4-benzodioxinyl)]ethyl}-N-methylquinoline]
8 | 136 | 1.1 | – | c1cnc2c(c1)CCC(N1CCC1)C2 (stereo not drawn) [Example 50, 7-Azetidino-5,6,7,8-tetrahydroquinoline]
9 | 137 | – | – | CN(C)C1CCc2cccnc2C1 (stereo not drawn) [Example 3, 5,6,7,8-Tetrahydro-7-dimethylaminoquinoline]
